# From ChEMBL document CHEMBL1127355, “(E)-3-[[[[6-(2-carboxyethenyl)-5-[[8-(4- methoxyphenyl)octyl]oxy]-2-pyridinyl]-methyl]thio]methyl]benzoic acid and related compounds: high affinity leukotriene B4 receptor antagonists” (J Med Chem, 1994)
# Columns and labels:
# [1] = biological target: Leukotriene B4 receptor 1 (Homo sapiens, UniProt Q15722); assay: Binding affinity at leukotriene B4 receptor on intact human PMNs by displacement of [3H]LTB4.
# Homo sapiens [2] = species: Homo sapiens; assay: Concentration of test compound required to inhibit 50% LTB4-induced calcium mobilization in intact human PMNs; assay type: functional
# Homo sapiens [3] = species: Homo sapiens; assay: Concentration of test compound required to inhibit 50% LTB4-induced degranulation of human PMNs; assay type: functional
# Mus musculus [4] = species: Mus musculus; assay: Effective concentration required for inhibition of LTB4-induced (250 ng/mL) PMN infiltration; assay type: functional
# Mus musculus [5] = assay: Effective concentration required per ear of mouse for inhibition of edematous response; assay type: functional
# Mus musculus [6] = species: Mus musculus; assay: Compound was tested for its effect on mouse ear for reduction of PMN infiltration; assay type: functional
# Mus musculus [7] = species: Mus musculus; assay: Effective concentration required per ear of mouse for inhibition of neutrophil infiltration; assay type: functional
# Sequence of Leukotriene B4 receptor 1 (Q15722 whole entry): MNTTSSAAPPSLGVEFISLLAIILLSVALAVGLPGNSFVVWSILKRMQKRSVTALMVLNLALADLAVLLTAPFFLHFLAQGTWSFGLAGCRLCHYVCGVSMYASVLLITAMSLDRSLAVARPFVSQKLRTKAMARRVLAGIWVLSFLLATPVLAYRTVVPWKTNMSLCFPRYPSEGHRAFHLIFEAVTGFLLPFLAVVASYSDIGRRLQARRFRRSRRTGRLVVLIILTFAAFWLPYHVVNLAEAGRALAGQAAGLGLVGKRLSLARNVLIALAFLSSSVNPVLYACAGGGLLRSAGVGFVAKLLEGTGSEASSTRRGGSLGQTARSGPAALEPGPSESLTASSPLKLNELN
Compound,Ki [1],IC50 (Homo sapiens [2]),IC50 (Homo sapiens [3]),ED50 (Mus musculus [4]),ED50 (Mus musculus [5]),Reduction (Mus musculus [6]),ED50 (Mus musculus [7])
COc1ccc(CCCCCCCCOc2ccc(CSCc3ccccc3C(=O)O)nc2/C=C/C(=O)O)cc1,112 nM,710 nM,,,,,
O=C(O)/C=C/c1nc(CSCc2cccc(C(=O)O)c2)ccc1OCCCCc1ccccc1,4.8 nM,500 nM,1700 nM,,,,
COc1ccc(CCCCOc2ccc(CSCc3cccc(C(=O)O)c3)nc2CCC(=O)O)cc1,28 nM,1900 nM,3800 nM,,,,
COc1ccc(CCCCOc2ccc(CSCc3cccc(C(=O)O)c3)nc2/C=C/C(=O)O)cc1,9.2 nM,770 nM,770 nM,,,,
O=C(O)/C=C/c1nc(CSCc2cccc(C(=O)O)c2)ccc1OCCCCCCCCc1ccccc1,15.4 nM,320 nM,500 nM,,,,
COc1ccc(CCCCCCCCOc2ccc(CSCc3cccc(C(=O)O)c3)nc2CCC(=O)O)cc1,8 nM,240 nM,190 nM,,,,
CCCc1c(OCCCOc2ccc(C(=O)NC)c(OC)c2CC2CC2)ccc2c1O[C@H](CCC(=O)O)CC2,1.3 nM,,,,,,

# The next lines start with results.
Ki [1],IC50 (Homo sapiens [2]),IC50 (Homo sapiens [3]),Compound,ED50 (Mus musculus [4]),ED50 (Mus musculus [5]),Reduction (Mus musculus [6]),ED50 (Mus musculus [7])
167 nM,3900 nM,3200 nM,COc1ccc(CCCCCCCCOc2ccc(C[S+]([O-])c3cccc(C(=O)O)c3)nc2/C=C/C(=O)O)cc1 (centres undefined),,,,
161 nM,7000 nM,,COc1ccc(CCCCCCCCOc2ccc(C[S+]([O-])Cc3ccc(C(=O)O)cc3)nc2/C=C/C(=O)O)cc1 (centres undefined),,,,
,131 nM,,COc1ccc(CCCCCCCCOc2ccc(CSCc3cccc(C(=O)O)c3)nc2/C=C/C(=O)O)cc1,7.1 mg/kg,0.58 mg,92%,0.39 mg
5.7 nM,175 nM,426 nM,COc1ccc(CCCCCCCCOc2ccc(CSCc3ccc(C(=O)O)cc3)nc2/C=C/C(=O)O)cc1,,,,
240 nM,3300 nM,2600 nM,COc1ccc(CCCCCCCCOc2ccc(C[S+]([O-])Cc3cccc(C(=O)O)c3)nc2/C=C/C(=O)O)cc1 (centres undefined),,,,
,550 nM,1000 nM,COc1ccc(CCCCCCCCOc2ccc(CSc3cccc(C(=O)O)c3)nc2/C=C/C(=O)O)cc1,,,,
53 nM,920 nM,1000 nM,COc1ccc(CCCCCCCCOc2ccc(CS(=O)(=O)Cc3cccc(C(=O)O)c3)nc2/C=C/C(=O)O)cc1,,,,
